Measurements reported in patent US20100179188A1, “NITROXIDE RADICAL AS TREATMENT FOR NEURODEGENERATION” (Office of Technology Transfer, NIH, priority 2007, published 2010).

Assays:
ferritin = experiment: Immunohistochemistry of ferritin in hippocampus and cortex; assay type: in vivo; conditions: hippocampus and cortex of IRP2−/− mice
Experimental: (§1) Diet: The mice were weaned 3-4 weeks after their birth. Immediately after weaning, mice were maintained on either a Tempo1-supplemented or control diet. In the Tempo1-supplemented diet, powdered Tempo1 was uniformly mixed with bacon-flavored mouse chow by a “cold press” technique (Bio-Serv, Frenchtown, N.J., USA) at a concentration of 10 mg/g of food. Bacon-flavored chow without Tempo1 was used as the control diet.
Immunohistochemistry: Paraffin-embedded tissue sections were boiled in a micro oven for 15 min for antigen retrieval in 10 mM citrate buffer pH 6.4 after dewaxing and rehydrating. The sections were blocked in blocking buffer (Tris-buffered saline pH 7.4, 5% nomial goat serum, 0.1% Tween-20) for 30 min, then were incubated with polyclonal rabbit anti-ferritin antibody for 2 h at room temperature, the protein-antibody complex was labeled by CY3-donkey anti-rabbit antibody (Jackson ImmunoResearch Laboratories, Inc., West Grove, Pa.), nuclei were labeled by DAPI as counterstaining. The slides were observed and the pictures were recorded with Nikon Eclipse E600 fluorescence microscope.
Immunohistochemical studies were performed to analyze ferritin expression in the hippocampus and cortexregions of the mouse brains. […] The overexpression of ferritin decreased with Tempo1 treatment.

IRP1 [1] = experiment: Western blot of IRP1 protein in brain-region lysates of IRP2−/− mice; assay type: in vivo; conditions: cerebellum, brain-stem and forebrain of IRP2−/− mice, Tempo1 diet vs control diet
Experimental: as §1
Tissue and lysate preparation: Animals were euthanized and tissues were frozen in liquid nitrogen immediately after harvesting, and stored at −80° C. under argon. Experiments were performed on tissues that were pulverized in liquid N2-cooled mortars in an anaerobic chamber, and then lysed in lysis buffer that was deaerated by cyclic freezethaw and air-removal with argon. […]
Lysates made from various brain regions of IRP2−/− mice that were maintained on a control diet or on a Tempo1-supplemented diet were analyzed for IRE binding activity of IRP1 and for TfR1, IRP1, and actin protein levels by gel-shift assay and Western blot. […] FIG. 3b is a quantification of the results as intensity of the bands relative to the control, represented here as 100%. Quantification was performed with the IQMac (IRP1 activity) or NIH Image (protein levels) program. Error bars represent the standard deviation calculated from the results of two different sets of animals.

IRP1 [2] = experiment: Western blot of IRP1 protein in IRP2−/− embryonic fibroblasts; assay type: cell-based, mouse; conditions: 0.3 and 1.0 mM, 16 h
Experimental: (§2) Cells: Embryonic fibroblasts of 13-day old embryos were isolated from wild type, IRP1−/− mice and IRP2−/− mice as described in LaVaute et al. supra. Myc-tagged HEK 293 Tet-on cell line, in which IRP2 expression was inducible, was prepared and cultured as described Bourdon et al., Blood Cells Mol Dis, 31, 247-255 (2003). Erythroblasts were harvested from bone marrow and purified as described in Cooperman et al., Blood, 106, 1084-1091 (2005).
(§3) Western blotting and antibodies: Protein analysis was carried out as described in LaVaute et al., supra. Equal amounts of protein (20-40 μg/lane) were separated on 13% SDSPAGE and transferred to nitrocellulose membranes. The membrane was blocked with 5% non-fat milk, 0.1% Triton X-100 in PBS and probed at RT in the same blocking buffer. IRP1 antibody was prepared against purified hIRP1 and used at 1:5000 dilution. L-ferritin antibody was raised in rabbit from L-ferritin protein purified from mouse livers. […]
(§4) To study the effect of Tempo1 on the IRE-binding activity of IRP1, IRP2−/− embryonic fibroblasts that were maintained in culture supplemented with 0, 0.3 and 1.0 mM Tempo1, with or without ferric ammonium citrate (FAC), for 16 h. […] Quantification was performed with the IQMac (IRP1 activity) or NIH Image (protein levels) program. Error bars represent the standard deviation calculated from the results of two different sets of experiments.

ferric iron accumulation = experiment: Perls' DAB stain for ferric iron in cerebellar folia and striatum; assay type: in vivo, mice; conditions: cerebellar folia and striatum of IRP2−/− animals on Tempo1 diet
Experimental: as §1
Perl's DAB iron staining: After dewaxing and rehydrating, paraffin-embeded tissue sections were stained in prewarmed staining solution (5% potassium ferrocyanide 15.0 ml, 5% hydrochloric acid 15.0 ml, 15 sec in micro oven) for 5 min. The sections were rinsed with distilled water and Tris-buffered saline pH7.4, then were stained with DAB staining solution (20 mg DAB, 50 μl 30% H2O2, 20 ml Tris-buffered saline pH 7.4) for 30 min at room temperature. After rinsing with distilled water, the sections were mounted with Crystal Mount mounting solution (Sigma) and were observed and taken pictures with Nikon Eclipse E600 fluorescence microscope.
Cerebellar folia and striatum of wild type and IRP2−/− mice that were maintained on a control diet or on a Tempo1-supplemented diet were analyzed for ferric iron accumulation using Perls' DAB stain. […]

IRP1+/− IRP2−/− mice = experiment: Hang-test of IRP1+/− IRP2−/− mice on Tempo1-supplemented diet; assay type: in vivo; conditions: FIG. 7c
Experimental: as §1
Hang-test: In the hang-test, mice were allowed to grip a wire mesh that was then inverted. The length of time that a mouse could hang on to an inverted wire mesh before falling (up to a maximum of 60 seconds) was measured and recorded.
Hang-test results of WT, IRP2−/− and IRP1+/− IRP2−/− mice that indicated IRP1+/− IRP2−/− animals were more symptomatic than IRP2−/− animals. […] Error bars represent standard error of the mean. The curves were drawn by using the polynomial curve fit of the KaleidaGraph program.

TfR1 = experiment: Western blot of TfR1 in IRP2−/− embryonic fibroblasts; assay type: cell-based, mouse; conditions: 0.3 and 1.0 mM, 16 h, with or without FAC
Experimental: as §2, §3, §4

In the case of `CC1(C)CC(O)CC(C)(C)N1[O]` [Tempo1], the overexpression of ferritin (ferritin) is reported as “decreased”, the IRP1 protein levels (IRP1 [1]) is reported as “did not significantly change” and the IRP1 levels (IRP1 [2]) is reported as “unchanged”. For the same compound, the ferric iron staining (ferric iron accumulation) was “decreased”, the “prevention of disease progression (hang-test)” value (IRP1+/− IRP2−/− mice) was “did not significantly (p=0.559) prevent” and the TfR1 levels (TfR1) was “increased”.
